Assay results as given in ChEMBL document CHEMBL2074409, “P-glycoprotein plays a role in the oral absorption of BMS-387032, a potent cyclin-dependent kinase 2 inhibitor, in rats” (Cancer Chemother Pharmacol, 2004).

Target: ATP-dependent translocase ABCB1 (Homo sapiens, UniProt P08183)
Experiment: TP_TRANSPORTER: transepithelial transport of BMS387032 at a concentration of 200uM in Caco-2 cells
Format: functional, cell-based
Details: caco-2, 200 µM

ATP-dependent translocase ABCB1, sequence (P08183 whole entry): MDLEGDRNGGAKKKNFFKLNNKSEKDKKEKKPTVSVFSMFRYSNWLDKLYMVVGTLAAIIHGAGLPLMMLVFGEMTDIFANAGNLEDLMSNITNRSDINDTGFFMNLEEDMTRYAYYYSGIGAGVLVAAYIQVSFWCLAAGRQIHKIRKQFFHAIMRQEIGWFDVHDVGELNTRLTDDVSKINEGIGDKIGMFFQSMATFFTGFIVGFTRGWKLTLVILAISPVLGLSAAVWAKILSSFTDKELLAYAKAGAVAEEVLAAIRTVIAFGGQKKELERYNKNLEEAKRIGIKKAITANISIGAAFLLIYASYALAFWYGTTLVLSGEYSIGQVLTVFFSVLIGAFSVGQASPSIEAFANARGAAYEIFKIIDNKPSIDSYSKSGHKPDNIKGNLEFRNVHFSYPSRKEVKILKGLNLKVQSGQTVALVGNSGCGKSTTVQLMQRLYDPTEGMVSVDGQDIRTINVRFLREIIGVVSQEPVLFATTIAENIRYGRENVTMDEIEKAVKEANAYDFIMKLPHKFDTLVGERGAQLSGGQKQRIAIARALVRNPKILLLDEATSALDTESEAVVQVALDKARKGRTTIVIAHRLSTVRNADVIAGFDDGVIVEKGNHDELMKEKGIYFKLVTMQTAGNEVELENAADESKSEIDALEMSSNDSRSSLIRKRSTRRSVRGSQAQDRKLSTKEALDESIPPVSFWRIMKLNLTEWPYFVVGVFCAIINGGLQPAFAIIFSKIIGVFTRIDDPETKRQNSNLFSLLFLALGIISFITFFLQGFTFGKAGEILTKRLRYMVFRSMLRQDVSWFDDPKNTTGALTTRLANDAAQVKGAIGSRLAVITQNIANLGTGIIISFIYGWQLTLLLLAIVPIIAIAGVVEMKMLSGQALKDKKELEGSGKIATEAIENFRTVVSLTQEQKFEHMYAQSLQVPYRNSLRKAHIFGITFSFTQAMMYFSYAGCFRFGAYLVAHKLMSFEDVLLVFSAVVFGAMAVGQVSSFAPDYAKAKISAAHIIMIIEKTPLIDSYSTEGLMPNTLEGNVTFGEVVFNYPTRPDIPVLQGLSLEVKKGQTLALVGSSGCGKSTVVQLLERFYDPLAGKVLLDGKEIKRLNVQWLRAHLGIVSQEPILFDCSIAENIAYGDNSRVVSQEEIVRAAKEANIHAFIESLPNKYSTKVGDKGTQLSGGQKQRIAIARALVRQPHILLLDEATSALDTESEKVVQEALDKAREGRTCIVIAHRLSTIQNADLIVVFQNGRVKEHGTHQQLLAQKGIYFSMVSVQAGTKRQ

CC(C)(C)c1cnc(CSc2cnc(NC(=O)C3CCNCC3)s2)o1 [BMS-387032]
Activity: substrate [+]
